Source: patent publication US20100137266A1, “TREATMENT OF INSULIN RESISTANCE AND DISORDERS ASSOCIATED THEREWITH” (UNIVERSITETET I OSLO, priority 2006, published 2010)

Legend:
human myotubes = test: Palmitate uptake and lipid distribution: TAG synthesis from [1-14C]palmitic acid in myotubes; format: cell-based
Experimental: FIG. 3. 22-hydroxycholesterols influence TAG synthesis from palmitic acid differently than T0901317. Human myoblasts were allowed to differentiate for 2 days, and then exposed to vehicle (0.1% DMSO), 1 μM T0901317, or 10 μM 22-S-hydroxycholesterol (22-S-HC) for 4 days. Differentiated myotubes were then incubated with [1-^14C]PA (0.5 μCi/ml, 0.1 mM) for 4 h before triacylglycerol (TAG) levels were determined. Results present means±SEM (n=4; independent muscle cell donors). *p<0.05 vs control, **p<0.05 vs all other treatments.
Human skeletal muscle cell cultures. A cell bank of satellite cells was established from muscle biopsy samples of the M. vastus lateralis of 6 healthy volunteers, age 25.7 years (±1.4), with BMI 21.6 (±1.0) and fasting glucose and insulin within normal range. The biopsies were obtained with informed consent and by approval of the National Committee for Research Ethics, Oslo, Norway. Muscle cell cultures free of fibroblasts were established by the method of Henry et al. (Diabetes, 44, 936-946, 1995), with minor modifications. Briefly, muscle tissue was dissected in Ham's F-10 media at 4° C., dissociated by three successive treatments with 0.05% trypsin/EDTA, and satellite cells were re-suspended in SkGM with 2% FCS and no added insulin. The cells were grown on culture wells coated with ECM gel (Apmis, 109, 726-734, 2001). At about 80% confluence, fusion of myoblasts into multinucleated myotubes was achieved by growth in DMEM with 2% FCS. All cells used were at passage 4 to 6. […]
Palmitate uptake and lipid distribution. […] The radioactivity in the cell fraction (20 μl) was quantified by liquid scintillation (Packard Tri-Carb 1900 TR) (Gaster et al, Diabetes, 53, 542-548, 2004). The protein content of each sample was determined (Bradford, Anal. Biochem., 72, 248-254, 1976), and triacylglycerol (TAG) was extracted (Gaster et al, supra). Briefly, the homogenized cell fraction (220 μl) was extracted, lipids separated by thin-layer chromatography and the radioactivity was quantified by liquid scintillation.

LXRα = molecular target: T1, LXRα (Homo sapiens, UniProt Q13133); conditions: Forman et al.; cited from earlier work
T1 construct: host or cells: CV-1 cells (fibroblasts)
T1 sequence (Q13133 1-447): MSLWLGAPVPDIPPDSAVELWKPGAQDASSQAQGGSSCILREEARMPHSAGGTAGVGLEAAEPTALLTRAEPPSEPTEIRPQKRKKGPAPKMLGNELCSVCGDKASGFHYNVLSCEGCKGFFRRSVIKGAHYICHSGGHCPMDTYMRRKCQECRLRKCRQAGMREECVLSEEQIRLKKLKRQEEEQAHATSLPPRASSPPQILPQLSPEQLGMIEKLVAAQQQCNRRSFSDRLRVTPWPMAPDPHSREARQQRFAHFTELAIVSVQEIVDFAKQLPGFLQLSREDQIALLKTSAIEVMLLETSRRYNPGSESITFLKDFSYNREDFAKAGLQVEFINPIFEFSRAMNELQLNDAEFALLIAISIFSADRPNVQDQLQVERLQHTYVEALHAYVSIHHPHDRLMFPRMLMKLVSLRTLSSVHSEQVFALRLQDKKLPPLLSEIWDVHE

GLUT1, GLUT3, GLUT4 = test: mRNA levels of glucose transporters in myotubes by Real-Time RT-PCR; format: cell-based, human; conditions: for GLUT4 mRNA level, increase: 1 μmol/l T0901317 or 10 μmol/l 22-R-HC for 4 days
From the text: FIG. 7. Glucose transport is increased in human myotubes after chronic 22-S-HC treatment. Human myoblasts were allowed to differentiate for 2 days, and then exposed to 1 μmol/1 T0901317, 10 μmol/[…]) or 1, 2, 5 and 10 μmol/1 22-S-HC(S-HC) for 4 days. […] (A) Present means for glucose uptake±SEM (n=4). Basal level for control are 1.20±0.24 nmol/mg cell protein. (B) A representative dose-response curve for glucose uptake after 1, 2, 5 and 10 μmol/l 22-S-HC treatment (n=3). (C) Total RNA were reversely transcribed and analyzed by Real-Time RT-PCR. Results are normalized to levels of 36B4 and present means±SEM (n=4-6). Relative expressions of GLUT1, GLUT3, GLUT4, and hexokinase (HK)II, ^ap<0.05 vs control, ^dp<0.05 vs T0901317. RNA isolation and analysis of gene expression by RT-PCR. Myotubes were washed, trypsinized and pelleted before total RNA was isolated by RNeasy Mini kit (Qiagen Sciences, Oslo, Norway) or Agilent Total RNA Mini kit (Matrix, Oslo, Norway) according to the suppliers total RNA isolation protocol. RNA samples were incubated with RNase-free DNase (Qiagen Sciences) for minimum 15 min in an additional step during the RNA isolation procedure. Total RNA (1 μg/μl) was reversely transcribed with […] primers using a Perkin-Elmer Thermal Cycler 9600 (25° C. for 10 min, 37° C. for 1 h, 99° C. for 5 min) and a TaqMan reverse-transcription reagents kit (Applied Biosystems). Real time PCR was performed using an ABI PRISM® 7000 Detection System. DNA expression was determined by SYBR® Green (Applied Biosystems), and primers [36B4 (Acc#M17885), ACSL1 (Acc#NM-001995), ABCA1 (Acc#AF165281), CD36 (Acc#L06850), FAS (Acc#U26644), GAPDH (Acc#J104038/M33197, GLUT4 (Acc#M20747), LXRα (Acc#U22662), LXR (Acc#U07132), Myogenin (Acc#X17651), MyoD (Acc#BC064493), PPARα (Acc#L02932), PPARδ (Acc#BC002715), PPARγ (Acc#L40904), SCD-1 (Acc#AB032261), SREBP1c (Acc#U00968)], GLUT1, (Acc#03195), GLUT3 ([…]) were designed using Primer Express® (Applied Biosystems). Each target gene was quantified in triplicates and carried out in a 25 μl reaction volume according to the suppliers protocol. […]

CC(C)CC[C@H](O)[C@@H](C)[C@H]1CC[C@H]2[C@@H]3CC=C4C[C@@H](O)CC[C@]4(C)[C@H]3CC[C@]12C [Example 22-S-HC, 22-S-hydroxycholesterol]
synthesis of TAG compared to T0901317 treatment (human myotubes; 10 μM for 4 days vs 1 μM T0901317): significantly reduced | reduction in incorporation of labeled palmitate into TAG (human myotubes; 10 μM for 4 days, compared to control myotubes): 50% | regulation of LXRα in fibroblasts (CV-1 cells) (LXRα): inactive

CC(C)CC[C@@H](O)[C@@H](C)[C@H]1CC[C@H]2[C@@H]3CC=C4C[C@@H](O)CC[C@]4(C)[C@H]3CC[C@]12C [Example 22-R-HC, 22-R-hydroxycholesterol]
GLUT4 mRNA level, increase (GLUT1, GLUT3, GLUT4): 4 fold | regulation of LXRα in fibroblasts (CV-1 cells) (LXRα): positively regulates

O=S(=O)(c1ccccc1)N(CC(F)(F)F)c1ccc(C(O)(C(F)(F)F)C(F)(F)F)cc1 [Example T0901317]
TAG synthesis from labeled palmitate (human myotubes; 1 μM T0901317 for 4 days, [1-14C]PA 4 h, vs control): increased | GLUT4 mRNA level, increase (GLUT1, GLUT3, GLUT4): 4 fold | mRNA level of glucose transporter 1 (GLUT1) (GLUT1, GLUT3, GLUT4; treatment for 4 days): tended to increase
